Data reported in ChEMBL document CHEMBL5226369, “Tetracyclic Steroids Bearing a Bicyclo[4.4.1] Ring System as Potent Antiosteoporosis Agents from the Deep-Sea-Derived Fungus Rhizopus sp. W23” (J Nat Prod, 2023).
Activity calls are given as the source filed them. The calls are words filed in the database; no cut-off is given here.

Legend:
A-375 = test: Antiproliferative activity against human A-375 cells by MTT assay; assay type: functional, cell-based
[1] = Inhibition of adipogenic differentiation in C57BL/6J mouse BMSC cells at 20 uM measured after 6 days by Oil Red O staining based light microscopy; assay type: functional; conditions: 144 h, time 6 day
HL-60 = test: Antiproliferative activity against human HL-60 cells by MTT assay; assay type: functional, cell-based
NCI-H1299 = test: Antiproliferative activity against human NCI-H1299 cells by MTT assay; assay type: functional, cell-based
PANC-1 = test: Antiproliferative activity against human PANC-1 cells by MTT assay; assay type: functional, cell-based
[2] = Antiproliferative activity against human SKGT4 cells by MTT assay; assay type: functional, cell-based
NCI-H460 = test: Antiproliferative activity against human NCI-H460 cells by MTT assay; assay type: functional, cell-based
[3] = Antiproliferative activity against human QGY-7701 cells by MTT assay; assay type: functional, cell-based; conditions: QGY7701
HCT-116 = test: Antiproliferative activity against human HCT-116 cells by MTT assay; assay type: functional, cell-based
[4] = (§1) Anti-osteoporosis activity against C57BL/6J mouse BMSC cells assessed as increase in osteogenic mineralization incubated for 14 days by Alizarin Red S staining based analysis; assay type: functional; conditions: 336 h, time 14 day, read-out: MEC
BMSC [5] = test: as §1; assay type: functional; conditions: time 14.0 day
A549 = test: Antiproliferative activity against human A549 cells by MTT assay; assay type: functional, cell-based
MDA-MB-231 = test: Antiproliferative activity against human MDA-MB-231 cells by MTT assay; assay type: functional, cell-based
PC-3 = test: Antiproliferative activity against human PC-3 cells by MTT assay; assay type: functional, cell-based
A-431 = test: Antiproliferative activity against human A-431 cells by MTT assay; assay type: functional, cell-based
HepG2 = test: Antiproliferative activity against human HepG2 cells by MTT assay; assay type: functional, cell-based
MCF7 = test: Antiproliferative activity against human MCF7 cells by MTT assay; assay type: functional, cell-based
KYSE-450 = test: Antiproliferative activity against human KYSE-450 cells by MTT assay; assay type: functional, cell-based
BMSC [6] = test: Anti-osteoporosis activity against C57BL/6J mouse BMSC cells assessed as increase in matrix mineralization of osteoblasts at 20 uM incubated for 14 days by Alizarin Red S staining based analysis; assay type: functional, cell-based; conditions: time 14.0 day
U2OS = test: Antiproliferative activity against human U2OS cells by MTT assay; assay type: functional, cell-based
BGC-823 = test: Antiproliferative activity against human BGC-823 cells by MTT assay; assay type: functional, cell-based
K562 = test: Antiproliferative activity against human K562 cells by MTT assay; assay type: functional, cell-based
Protein smoothened = Protein smoothened (Homo sapiens, UniProt Q99835); test: Agonist activity at SMO receptor (unknown origin)
Sequence of Protein smoothened (Q99835 whole entry): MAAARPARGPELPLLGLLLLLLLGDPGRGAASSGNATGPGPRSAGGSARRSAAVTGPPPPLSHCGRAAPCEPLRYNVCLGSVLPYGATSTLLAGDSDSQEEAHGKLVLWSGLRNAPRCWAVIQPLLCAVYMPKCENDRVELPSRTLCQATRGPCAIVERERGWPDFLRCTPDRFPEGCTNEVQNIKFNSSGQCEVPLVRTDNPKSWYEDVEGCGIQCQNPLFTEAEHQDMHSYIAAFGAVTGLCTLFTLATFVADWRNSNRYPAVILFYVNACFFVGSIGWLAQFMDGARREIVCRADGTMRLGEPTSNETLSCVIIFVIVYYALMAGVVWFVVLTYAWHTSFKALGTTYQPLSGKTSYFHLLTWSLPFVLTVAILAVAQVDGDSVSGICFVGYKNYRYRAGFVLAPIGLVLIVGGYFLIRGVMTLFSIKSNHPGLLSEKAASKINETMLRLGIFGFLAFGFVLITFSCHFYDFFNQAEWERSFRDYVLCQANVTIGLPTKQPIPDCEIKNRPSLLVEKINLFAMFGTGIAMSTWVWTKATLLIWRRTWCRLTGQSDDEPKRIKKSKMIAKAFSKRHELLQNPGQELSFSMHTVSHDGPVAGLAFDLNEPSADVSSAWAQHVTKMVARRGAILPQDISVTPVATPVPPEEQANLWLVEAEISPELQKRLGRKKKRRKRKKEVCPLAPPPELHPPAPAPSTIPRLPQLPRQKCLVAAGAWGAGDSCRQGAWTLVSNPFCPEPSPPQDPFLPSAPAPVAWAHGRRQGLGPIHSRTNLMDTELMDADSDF

Structure (SMILES): C/C(=C/[C@H](O)[C@H](C)O)[C@H]1CC[C@H]2C3=CC(=O)[C@H]4CC(=CC[C@H](O)C4)[C@H]3CC[C@]12C
- IC50 (A-375): > 20 µM
- inhibition at 20 µM [1]: 65%
- IC50 (HL-60): > 20 µM
- IC50 (NCI-H1299): > 20 µM
- IC50 (PANC-1): > 20 µM
- IC50 [2]: > 20 µM
- IC50 (NCI-H460): > 20 µM
- IC50 [3]: > 20 µM
- IC50 (HCT-116): > 20 µM
- minimal effective concentration [4]: 20 µM
- Activity (BMSC [5]): Dose-Dependent Effect
- IC50 (A549): > 20 µM
- IC50 (MDA-MB-231): > 20 µM
- IC50 (PC-3): > 20 µM
- IC50 (A-431): > 20 µM
- IC50 (HepG2): > 20 µM
- IC50 (MCF7): > 20 µM
- IC50 (KYSE-450): > 20 µM
- Activity (BMSC [6]): Active
- IC50 (U2OS): > 20 µM
- IC50 (BGC-823): > 20 µM
- IC50 (K562): > 20 µM

Structure (SMILES): c1ccc2c(Oc3nc(Nc4ccc(N5CCOCC5)cc4)c4ncn(C5CCCCC5)c4n3)cccc2c1 [PURMORPHAMINE]
- EC50 (Protein smoothened): 1 µM
